Key:
[1] = cited from earlier work
[2] = TGA analysis; type: physicochemical
[3] = oral administration, 30 mg/kg dose; cited from earlier work
[4] = cited from earlier work; remark: listed apart in the source

For `C[C@@H]1O[C@@H]1P(=O)(O)O` [Fosfomycin calcium], the absorption ([1]; oral) is listed as 10–30%.

For `C[C@@H]1O[C@@H]1P(=O)(O)O.NC(CO)(CO)CO` [Fosfomycin tromethamine], the elimination half-life [1] is listed as 2 h and the “serum concentration (Cmax)” value ([1]; single 3-gm dose) is listed as 26.1 (± 9.1) µg/mL.

For `C[C@@H]1O[C@@H]1P(=O)(O)O` [Fosfomycin], the “temperature at which degradation initiates (TGA)” value [2] is listed as 150 °C, the “temperature range of marked weight loss (TGA)” value [2] is listed as 200–400 °C and the “calculated Tmax” value [3] is listed as 3.00 ± 0.00 h. For the same compound, the “mean peak concentration (Cmax)” value [3] was 3600 ± 960 ng/mL.

For `Cc1ncc([N+](=O)[O-])n1CCO` [Metronidazole], the “local irritation, share of users” value ([4]; vaginal administration) is listed as 10–15% and the “cure rate for bacterial vaginosis” value ([4]; vaginal suppositories, within 7 days) is listed as ~80%.
